{"source": "patent US20060276381A1", "about": "“Remedy for diabetes” (Chugai Seiyaki Kabushiki Kaisha, priority 2002, published 2006)", "key": {"food-deprived mice": {"tested_on": "food-deprived mice", "experiment": "Feeding tests in food-deprived lean mice", "assay_type": "in vivo", "conditions": "for Food intake: IP administration, food-deprived mice"}, "ob/ob mice": {"tested_on": "ob/ob mice", "experiment": "Feeding test in ob/ob mice", "assay_type": "in vivo", "conditions": "IP"}, "GHS-R in the brain": {"molecular_target": "T1, GHS-R in the brain (Mus musculus, UniProt Q99P50)", "T1 construct": "possibility that ghrelin would act through GHS-R in the brain; from tissue; host or cells: brain of living mice (ICV administration)", "T1 sequence (Q99P50 whole entry)": "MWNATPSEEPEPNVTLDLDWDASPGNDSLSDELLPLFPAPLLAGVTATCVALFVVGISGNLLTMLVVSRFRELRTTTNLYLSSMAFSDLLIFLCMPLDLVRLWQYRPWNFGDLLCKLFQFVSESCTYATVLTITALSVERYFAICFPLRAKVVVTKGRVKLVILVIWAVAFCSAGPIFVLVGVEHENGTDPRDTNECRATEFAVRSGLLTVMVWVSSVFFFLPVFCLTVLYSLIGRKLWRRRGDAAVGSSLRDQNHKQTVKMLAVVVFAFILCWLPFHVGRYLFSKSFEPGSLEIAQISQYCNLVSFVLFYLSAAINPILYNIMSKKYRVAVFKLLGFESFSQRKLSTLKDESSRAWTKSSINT", "experiment": "Simultaneous administration of ghrelin (IP) and [D-Lys-3]-GHRP-6 (ICV), food intake", "assay_type": "in vivo, mice", "conditions": "free access to food", "procedure": "For ICV administration, the mice were anesthetized with sodium pentobarbital (80-85 mg/kg IP) and placed in a stereotaxic instrument (SR-6, Narishige, Tokyo, Japan) seven days before the experiments. A hole was made in each skull by using a needle inserted 0.9 mm lateral to the central suture and 0.9 mm posterior to the bregma. A 24-gauge cannula (Safelet-Cas, Nipro, Osaka, Japan) beveled at one end over a distance of 3 mm was implanted into the third cerebral ventricle for ICV administration. The cannula was fixed to the skull with dental cement and capped with silicon. A 27-gauge injection insert was attached to a microsyringe by PE-20 tubing.\nBefore feeding tests, mice were food deprived for 16 hours with free access to water, except during an experiment on the effect of co-administration of [D-Lys-3]-GHRP-6 and ghrelin on food intake, in which mice were given free access to food and water. Food intake was measured by subtracting uneaten food from the initially pre-measured food at 20 minutes, 1, 2 and 4 hours after administration.\nIn order to evaluate the possibility that ghrelin would act through GHS-R in the brain, the inventors examined the effects of simultaneous administration of ghrelin and [D-Lys-3]-GHRP-6 on food intake."}, "[1]": {"tested_on": "gastric emptying rate in mice", "experiment": "Gastric emptying", "assay_type": "in vivo", "conditions": "IP, one hour after administration", "procedure": "Before the experiments on gastric emptying, mice were food deprived for 16 hours with free access to water. The fasted mice had free access to pre-weighed pellets for one hour and were then administered [D-Lys-3]-GHRP-6. The mice were deprived of food again for one or two hours after administration. Food intake was measured by weighing the uneaten pellets. Mice were killed by cervical dislocation two or three hours after the start of the experiments. Immediately after that, the stomach was exposed by laparotomy, quickly ligated at both the pylorus and cardia, then removed, and its dry content was weighed. Gastric emptying was calculated according to the following formula: gastric emptying (%)={1−(dry weight of food recovered from the stomach/weight of food intake)}×100. (8) Repeated Administration"}, "ob/ob obese mice": {"tested_on": "ob/ob obese mice", "experiment": "Repeated IP administration of [D-Lys-3]-GHRP-6 in ob/ob obese mice", "assay_type": "in vivo"}, "[2]": {"tested_on": "mice with diet-induced obesity", "experiment": "Feeding test in mice with diet-induced obesity", "assay_type": "in vivo", "conditions": "IP, acute"}, "[3]": {"conditions": "rat des-Gln14-ghrelin; cited from earlier work"}, "[4]": {"tested_on": "leptin and resistin mRNA in WAT", "conditions": "repeated IP administrations of ghrelin", "procedure": "(§1) Repeated IP administrations were continued for five days in lean mice under a high-fat diet or a standard diet, and for six days in […] obese mice under a standard diet, respectively. The mice were given the administration at 7:00 AM and 19:00 PM. Food intake and body weight were measured daily. Serum was separated from blood obtained from the orbital sinus under ether anesthesia at the end of the experiment (eight hours after removal of food and the final IP administration). Mice were killed by cervical dislocation. Immediately after that, the epididymal fat pad mass assessed as white adipose tissue (WAT) and the gastrocnemius muscle were removed and weighed. Blood glucose was measured by the glucose oxidase method. Serum insulin and free fatty acids (FFA) were measured by enzyme immunoassay and enzymatic method (EIKEN CHEMICAL CO., LTD., Tokyo, Japan), respectively. Serum triglycerides and total cholesterol were measured by an enzymatic method (Wako Pure Chemical Industries, Ltd., Tokyo, Japan).\n(§2) Subsequently, mRNA levels of leptin, adiponectin and resistin in WAT were assessed."}, "rats": {"tested_on": "rats", "conditions": "rats in vivo; cited from earlier work"}, "[5]": {"tested_on": "lean mice under a high-fat diet", "procedure": "Male mice of the ddy strain (34-37 g, JAPAN SLC, Shizuoka, Japan) and obese (ob/ob) C57BL/6J mice (68-74 g, Shionogi Co., Ltd., Shiga, Japan) were used. They were individually housed in a regulated environment (22±2° C., 55±10% humidity, 12:12 hour light:dark cycle with light on at 7:00 AM). Mice received a standard diet containing 12% of total energy as fat or a high-fat diet containing 45% of total energy as fat (CLEA Japan, INC., Tokyo, Japan). Food and water were available ad lib except as otherwise indicated. All experiments were approved by Kobe University animal care committee.\n[D-Lys-3]-GHRP-6, [D-Arg-1, D-Phe-5, D-Trp-7, 9, Leu-11] substance P and rat ghrelin were purchased from BACHEM CALIFORNIA INC. (Torrance, Calif., USA), NEOSYSTEM (Strasbourg, France) and Peptide Institute (Osaka, Japan), respectively. Just before administration, each drug was diluted in 4 μl of artificial cerebrospinal fluid (ACSF) for intra-third cerebroventricular (ICV) administration or in 100 μl of physiological saline for intraperitoneal (IP) administration. Results are expressed as mean value±s.e.m. Analysis of variance(ANOVA) followed by Bonferroni's t test was used to assess the differences among groups. P<0.05 was considered to be statistically significant.\nas §1, §2"}, "pituitary gland cells": {"tested_on": "pituitary gland cells", "conditions": "primary culture of pituitary gland cells; cited from earlier work"}, "GHS-R": {"molecular_target": "GHS-R (Rattus norvegicus, UniProt O08725)", "sequence (O08725 whole entry)": "as the sequence (Q99P50 whole entry) above, with S30P, S249A counted along it", "conditions": "CHO cells having GHS-R expressed, chemically synthesized ghrelin; cited from earlier work"}, "[6]": {"conditions": "20 nmol IP every 12 hours for 6 days"}, "[7]": {"conditions": "200 nmol IP every 12 hours for 6 days"}, "[8]": {"conditions": "HF diet, every 12 hours for 5 days, lean mice, mean ± s.e.m."}, "[9]": {"conditions": "IP 3 nmol/mouse twice daily for five days"}, "[10]": {"conditions": "IP 3 nmol/mouse twice daily for five days, high-fat diet"}}, "note": "No end group written: not given here.", "data": [{"substance": "[D-Arg-1, D-Phe-5, D-Trp-7, 9, Leu-11] substance P", "values": [{"measurement": "Food intake", "setting": "food-deprived mice", "value": "significantly reduced food intake in a dose-dependent manner"}]}, {"substance": "[D-Lys-3]-GHRP-6", "values": [{"measurement": "Food intake", "setting": "ob/ob mice", "value": "significantly reduced food intake in ob/ob mice"}, {"measurement": "Feeding behavior", "setting": "food-deprived mice; ICV administration", "value": "potent decrease in feeding behavior"}, {"measurement": "Food intake", "setting": "food-deprived mice", "value": "significantly reduced food intake in a dose-dependent manner"}, {"measurement": "Effect on feeding induced by IP administration of ghrelin", "setting": "GHS-R in the brain; [D-Lys-3]-GHRP-6 ICV", "value": "abolished the stimulatory effects on the feeding"}, {"measurement": "Gastric emptying rate", "setting": "[1]", "value": "significant decrease in the gastric emptying rate"}, {"measurement": "Cholesterol", "setting": "ob/ob obese mice; [6]", "value": "219.0 ± 11.24", "unit": "mg/dL"}, {"measurement": "Fat pad mass (epididymal)", "setting": "ob/ob obese mice; [6]", "value": "0.897 ± 0.169", "unit": "g"}, {"measurement": "Food intake", "setting": "ob/ob obese mice; [6]", "value": "4.527 ± 0.261", "unit": "g/day"}, {"measurement": "Free fatty acids", "setting": "ob/ob obese mice; [6]", "value": "2.036 ± 0.121", "unit": "meq/l"}, {"measurement": "Glucose (blood)", "setting": "ob/ob obese mice; [6]", "value": "217.3 ± 27.90", "unit": "mg/dL"}, {"measurement": "Insulin", "setting": "ob/ob obese mice; [6]", "value": "41.61 ± 10.85", "unit": "ng/mL"}, {"measurement": "Skeletal muscle (gastrocnemius)", "setting": "ob/ob obese mice; [6]", "value": "0.314 ± 0.009", "unit": "g"}, {"measurement": "Triglycerides", "setting": "ob/ob obese mice; [6]", "value": "38.57 ± 3.551", "unit": "mg/dL"}, {"measurement": "Cholesterol", "setting": "ob/ob obese mice; [7]", "value": "228.4 ± 21.84", "unit": "mg/dL"}, {"measurement": "Fat pad mass (epididymal)", "setting": "ob/ob obese mice; [7]", "value": "0.860 ± 0.086", "unit": "g"}, {"measurement": "Food intake", "setting": "ob/ob obese mice; [7]", "value": "4.285 ± 0.298", "unit": "g/day"}, {"measurement": "Free fatty acids", "setting": "ob/ob obese mice; [7]", "value": "1.646 ± 0.078", "unit": "meq/l"}, {"measurement": "Glucose (blood)", "setting": "ob/ob obese mice; [7]", "value": "134.9 ± 19.47", "unit": "mg/dL"}, {"measurement": "Insulin", "setting": "ob/ob obese mice; [7]", "value": "36.54 ± 8.695", "unit": "ng/mL"}, {"measurement": "Skeletal muscle (gastrocnemius)", "setting": "ob/ob obese mice; [7]", "value": "0.326 ± 0.013", "unit": "g"}, {"measurement": "Triglycerides", "setting": "ob/ob obese mice; [7]", "value": "41.14 ± 5.990", "unit": "mg/dL"}, {"measurement": "Blood glucose concentrations", "setting": "ob/ob obese mice; repeated administrations", "value": "significantly lowered"}, {"measurement": "Body weight gain", "setting": "ob/ob obese mice; repeated administrations", "value": "significantly lowered"}, {"measurement": "Muscle weight", "setting": "ob/ob obese mice; repeated administrations", "value": "without reducing the muscle weight"}, {"measurement": "Reduction of FFA levels compared with physiological saline-treated ob/ob mice", "setting": "ob/ob obese mice; repeated administrations", "value": 24, "unit": "%"}, {"measurement": "Body weight gain", "setting": "[2]", "value": "resulting decrease in body weight gain"}, {"measurement": "Food intake", "setting": "[2]", "value": "decreased potently"}]}, {"substance": "des-Gln14-ghrelin: ghrelin analog in which Gln 14 in ghrelin is deleted (GSSFLSPEHQKAQRKESKKPPAKLQPR; ends and bridges not checked; UniProt Q9QYH7 24-51, looked up, variant Q14*)", "values": [{"measurement": "Growth hormone releasing activity relative to ghrelin", "setting": "[3]", "value": "the same intensity of growth hormone releasing activity"}]}, {"substance": "ghrelin", "values": [{"measurement": "Leptin mRNA expression in WAT", "setting": "[4]", "value": "increased"}, {"measurement": "Resistin mRNA expression in WAT", "setting": "[4]", "value": "reducing"}, {"measurement": "Growth hormone in the blood", "setting": "rats", "value": "elevates growth hormone in the blood"}, {"measurement": "Feeding after IP ghrelin", "setting": "GHS-R in the brain", "value": "stimulatory effects on the feeding"}, {"measurement": "Calorie intake", "setting": "[5]; [8]", "value": "25.94 ± 2.562", "unit": "kcal/day"}, {"measurement": "Cholesterol", "setting": "[5]; [8]", "value": "224.8 ± 19.69", "unit": "mg/dL"}, {"measurement": "Fat pad mass (epididymal)", "setting": "[5]; [8]", "value": "1.202 ± 0.175", "unit": "g"}, {"measurement": "Free fatty acids", "setting": "[5]; [8]", "value": "1.636 ± 0.047", "unit": "meq/l"}, {"measurement": "Glucose (blood)", "setting": "[5]; [8]", "value": "160.5 ± 8.977", "unit": "mg/dL"}, {"measurement": "Insulin", "setting": "[5]; [8]", "value": "2.520 ± 0.945", "unit": "ng/mL"}, {"measurement": "Skeletal muscle (gastrocnemius)", "setting": "[5]; [8]", "value": "0.340 ± 0.005", "unit": "g"}, {"measurement": "Triglycerides", "setting": "[5]; [8]", "value": "32.80 ± 7.965", "unit": "mg/dL"}, {"measurement": "Fat pad mass increase compared with saline-treated mice fed high-fat diet", "setting": "[5]; [9]", "value": 125, "unit": "%"}, {"measurement": "Fat pad mass increase compared with saline-treated mice fed standard diet", "setting": "[5]; [9]", "value": 49, "unit": "%"}, {"measurement": "Blood glucose concentrations", "setting": "[5]; [10]", "value": "moderate increase"}, {"measurement": "Body weight gain", "setting": "[5]; [10]", "value": "increased significantly"}, {"measurement": "Daily energy intake", "setting": "[5]; [10]", "value": "concomitant increase"}, {"measurement": "Serum cholesterol level", "setting": "[5]; [10]", "value": "also increased"}, {"measurement": "Serum insulin level", "setting": "[5]; [10]", "value": "also increased"}, {"measurement": "Skeletal muscle weight", "setting": "[5]; [10]", "value": "did not show any increase in weight"}, {"measurement": "Growth hormone release", "setting": "pituitary gland cells", "value": "activity of releasing growth hormone"}, {"measurement": "Amount having the activity of elevating intracellular Ca++", "setting": "GHS-R", "value": "nanomolar order"}]}]}
